Measurements as given in patent US10898481B2 (priority 2018, dated 2021).
Where two headings read alike, the source gives them in different places.

Legend:
[1] = target: hADORA1/CHO (hA1 expressing) cells (Homo sapiens (Human), UniProt P30542); experiment: cell-based; conditions: 10 μM adenosine
hA1 = hA1 (Homo sapiens (Human), UniProt P30542); conditions: hA1 membrane, [3H]-DPCPX; read-out: Binding Affinity (IC50 nM) hA1
Description: (§1) The empty boxes in the tables below indicate data not collected yet.

mA2a/CHO = mA2a/CHO (Mus musculus (Mouse), UniProt Q60613); experiment: cAMP inhibition assay in mA2a/CHO cells, 10 μM adenosine; type: cell-based; conditions: read-out: cAMP & FLIPR IC50 (nM) mA2a;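 note: compounds preincubated 30 min at 37 °C before the adenosine challenge, then 30 min further stimulation, readout after 60 min detection reagent incubation at room temperature in 384-well plates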
mA2a/CHO, sequence (Q60613 whole entry): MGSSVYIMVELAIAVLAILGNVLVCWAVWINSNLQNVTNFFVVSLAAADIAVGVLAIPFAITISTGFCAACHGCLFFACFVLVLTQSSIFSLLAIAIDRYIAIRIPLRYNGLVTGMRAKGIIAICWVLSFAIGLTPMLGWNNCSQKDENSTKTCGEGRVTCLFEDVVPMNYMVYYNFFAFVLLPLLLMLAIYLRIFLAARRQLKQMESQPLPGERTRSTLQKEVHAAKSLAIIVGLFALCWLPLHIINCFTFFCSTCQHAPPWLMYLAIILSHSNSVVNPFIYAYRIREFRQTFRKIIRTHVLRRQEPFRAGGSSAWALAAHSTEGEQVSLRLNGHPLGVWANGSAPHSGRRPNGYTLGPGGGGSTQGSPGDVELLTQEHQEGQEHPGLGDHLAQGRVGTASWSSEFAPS

hA2a = hA2a (Homo sapiens (Human), UniProt P29274); experiment: Radioligand binding to hA2a membrane with [3H]-CGS21680; conditions: read-out: Binding Affinity (IC50 nM) hA2a
hA2a, sequence (P29274 whole entry): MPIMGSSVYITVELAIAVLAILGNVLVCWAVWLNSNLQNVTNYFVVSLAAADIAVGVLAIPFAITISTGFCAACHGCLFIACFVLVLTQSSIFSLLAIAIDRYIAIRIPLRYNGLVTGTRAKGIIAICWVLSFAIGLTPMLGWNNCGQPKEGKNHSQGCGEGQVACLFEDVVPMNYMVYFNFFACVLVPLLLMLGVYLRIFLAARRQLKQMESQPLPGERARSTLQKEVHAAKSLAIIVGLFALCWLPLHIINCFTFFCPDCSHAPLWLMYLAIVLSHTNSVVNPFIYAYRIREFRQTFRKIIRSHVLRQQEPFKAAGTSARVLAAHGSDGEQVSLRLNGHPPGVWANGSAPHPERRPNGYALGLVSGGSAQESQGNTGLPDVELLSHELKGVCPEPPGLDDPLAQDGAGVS
Description: as §1

hA2a/CHO = hA2a/CHO (Homo sapiens (Human), UniProt P29274); experiment: cAMP inhibition assay in hA2a/CHO cells, 10 μM adenosine; type: cell-based; conditions: read-out: cAMP & FLIPR IC50 (nM) hA2a;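 note: compounds added to cells 30 min ahead of adenosine, then a further 30 min at 37 °C with adenosine before cAMP detection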
hA2a/CHO, sequence (P29274 whole entry): as above

hA2b/CHO = hA2b/CHO (Homo sapiens (Human), UniProt P29275); experiment: cAMP inhibition assay in hA2b/CHO cells, 10 μM adenosine; type: cell-based; conditions: read-out: cAMP & FLIPR IC50 (nM) hA2b;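 note: cells exposed to compound 30 min at 37 °C, then stimulated with adenosine a further 30 min, cAMP read after 60 min at room temperature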
hA2b/CHO, sequence (P29275 whole entry): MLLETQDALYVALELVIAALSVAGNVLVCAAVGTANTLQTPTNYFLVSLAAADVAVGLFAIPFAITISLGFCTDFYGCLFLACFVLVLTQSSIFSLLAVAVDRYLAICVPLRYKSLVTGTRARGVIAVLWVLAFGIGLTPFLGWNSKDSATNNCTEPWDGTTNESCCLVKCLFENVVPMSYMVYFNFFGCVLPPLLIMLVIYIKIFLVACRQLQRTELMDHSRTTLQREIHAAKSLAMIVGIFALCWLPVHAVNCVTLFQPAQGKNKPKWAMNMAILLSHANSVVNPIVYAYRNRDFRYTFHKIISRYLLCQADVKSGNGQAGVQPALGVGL

hA3/CHO = hA3/CHO (Homo sapiens (Human), UniProt P0DMS8); experiment: cell-based
hA3/CHO, sequence (P0DMS8 whole entry): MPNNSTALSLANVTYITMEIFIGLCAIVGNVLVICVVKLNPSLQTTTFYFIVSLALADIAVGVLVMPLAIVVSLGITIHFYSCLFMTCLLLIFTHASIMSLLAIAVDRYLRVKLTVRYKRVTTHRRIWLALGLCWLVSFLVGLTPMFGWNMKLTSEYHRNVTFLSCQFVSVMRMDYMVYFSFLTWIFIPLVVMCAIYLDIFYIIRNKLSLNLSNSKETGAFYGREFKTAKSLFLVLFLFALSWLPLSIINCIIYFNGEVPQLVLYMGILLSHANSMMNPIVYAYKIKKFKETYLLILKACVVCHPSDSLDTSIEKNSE
Procedure: hA2a/CHO, hA2b/CHO, hA3/CHO and mA2a/CHO (Genscript) were plated at 5×10^3 cells/well into 384-well polystyrene plates at the day of experiment. Compounds were pre-incubated with cells for 30 min at 37° C., 5% CO2. Then 10 μM adenosine was added to the cells and incubated for 30 min at 37° C., 5% CO2. Detection reagent (CISBIO) was added and the plates were incubated for 60 min at room temperature. The signal was captured by Envision.

[2] = cAMP & FLIPR IC50 (nM) hA1, FLIPR inhibition
[3] = FLIPR inhibition, read-out: cAMP & FLIPR IC50 (nM) hA1

hADORA1/CHO (hA1 expressing) cells, sequence (P30542 whole entry): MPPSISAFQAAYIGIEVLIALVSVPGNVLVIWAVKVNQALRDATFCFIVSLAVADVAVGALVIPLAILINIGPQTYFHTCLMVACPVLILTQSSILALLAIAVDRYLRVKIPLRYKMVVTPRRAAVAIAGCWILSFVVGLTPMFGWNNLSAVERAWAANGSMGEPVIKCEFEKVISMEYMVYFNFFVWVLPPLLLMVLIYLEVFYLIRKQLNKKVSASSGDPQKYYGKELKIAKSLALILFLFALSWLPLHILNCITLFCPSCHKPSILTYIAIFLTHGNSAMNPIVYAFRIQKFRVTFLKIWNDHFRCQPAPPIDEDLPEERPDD
hA1, sequence (P30542 whole entry): as above

Work on `Cn1cc(-c2nc(C(=O)NCc3nc(N)ccc3F)c(N)nc2-c2ncco2)ccc1=O` [Example 49, 3-amino-N-((6-amino-3-fluoropyridin-2-yl)methyl)-6-(1-methyl-6-oxo-1,6-dihydropyridin-3-yl)-5-(oxazol-2-yl)pyrazine-2-carboxamide] yielded an IC50 [1, 2] of 1710 nM and an IC50 (hA1) of 117 nM.
`Nc1nc(-c2ncco2)c(-c2ccc3nccn3c2)nc1C(=O)NCc1ncccc1F` [Example 43, 3-amino-N-((3-fluoropyridin-2-yl)methyl)-6-(imidazo[1,2-a]pyridin-6-yl)-5-(oxazol-2-yl)pyrazine-2-carboxamide] was tested, and the IC50 (mA2a/CHO) was 240 nM, the IC50 [1, 2] was 10000 nM and the IC50 (hA2a) was 21 nM. It also gave an IC50 (hA1) of 245 nM, an IC50 (hA2a/CHO) of 49 nM and an IC50 (hA2b/CHO) of 159 nM.
With `Cn1cnc2ccc(-c3nc(C(=O)NCc4ncccc4F)c(N)nc3-c3ncco3)cc21` [Example 51, 3-amino-N-((3-fluoropyridin-2-yl)methyl)-6-(3-methyl-3H-benzo[d]imidazol-5-yl)-5-(oxazol-2-yl)pyrazine-2-carboxamide] the IC50 (mA2a/CHO) was 9.6 nM, the IC50 [1, 3] was 2500 nM and the IC50 (hA2a) was 2.1 nM. The IC50 (hA1) was 78 nM, the IC50 (hA2a/CHO) was 1.2 nM and the IC50 (hA2b/CHO) was 5.5 nM.
For `Nc1nc(-c2ncco2)c(-c2ccc3nncn3c2)nc1C(=O)NCc1c(F)cccc1F` [Example 34, 6-([1,2,4]triazolo[4,3-a]pyridin-6-yl)-3-amino-N-(2,6-difluorobenzyl)-5-(oxazol-2-yl)pyrazine-2-carboxamide], the IC50 (mA2a/CHO) was 192 nM, the IC50 [1, 3] was 10000 nM and the IC50 (hA2a) was 3.7 nM. It also gave an IC50 (hA2a/CHO) of 63 nM, an IC50 (hA3/CHO) of no less than 10 µM and an IC50 (hA2b/CHO) of 330 nM.
In the case of `Nc1nc(-c2ncco2)c(-c2ccc3ncnn3c2)nc1C(=O)NCc1ncccc1F` [Example 100, 6-([1,2,4]triazolo[1,5-a]pyridin-6-yl)-3-amino-N-((3-fluoropyridin-2-yl)methyl)-5-(oxazol-2-yl)pyrazine-2-carboxamide], the IC50 (mA2a/CHO) is reported as 4530 nM, the IC50 [1, 2] is reported as 10000 nM and the IC50 (hA2a) is reported as 8.4 nM. It also gave an IC50 (hA1) of 685 nM, an IC50 (hA2a/CHO) of 76 nM and an IC50 (hA2b/CHO) of 312 nM.
For `Cn1cc(-c2nc(C(=O)NCc3cccc(N)n3)c(N)nc2-c2ncco2)ccc1=O` [Example 24, 3-amino-N-[(6-aminopyridin-2-yl)methyl]-6-(1-methyl-6-oxo-1,6-dihydropyridin-3-yl)-5-(1,3-oxazol-2-yl)pyrazine-2-carboxamide], the IC50 (mA2a/CHO) was 641 nM, the IC50 [1, 3] was 9360 nM and the IC50 (hA2a) was 11 nM. It also gave an IC50 (hA2a/CHO) of 199 nM, an IC50 (hA3/CHO) of no less than 10 µM and an IC50 (hA2b/CHO) of 1460 nM.
`COc1ccccc1CNC(=O)c1nc(-c2cc(C)nc(C)c2)c(-c2ccc(C)o2)nc1N` [Example 61, 3-amino-6-(2,6-dimethylpyridin-4-yl)-N-(2-methoxybenzyl)-5-(5-methylfuran-2-yl)pyrazine-2-carboxamide] was tested, and the IC50 (mA2a/CHO) was 6 nM, the IC50 (hA2a) was 7.9 nM and the IC50 (hA1) was 52 nM. It also gave an IC50 (hA2a/CHO) of 0.6 nM and an IC50 (hA2b/CHO) of no less than 10000 nM.
Work on `Cn1cc(-c2nc(C(=O)NCc3ncccc3F)c(N)nc2-c2ncco2)ccc1=O` [Example 14, 3-amino-N-((3-fluoropyridin-2-yl)methyl)-6-(1-methyl-6-oxo-1,6-dihydropyridin-3-yl)-5-(oxazol-2-yl)pyrazine-2-carboxamide] yielded an IC50 (mA2a/CHO) of 213 nM, an IC50 [1, 3] of 10000 nM and an IC50 (hA2a) of 3.1 nM. For the same compound, the IC50 (hA2a/CHO) was 98 nM, the IC50 (hA3/CHO) was no less than 10 µM and the IC50 (hA2b/CHO) was 768 nM.
`Nc1cccc(CNC(=O)c2nc(-c3ccc4nccn4c3)c(-c3ncco3)nc2N)n1` [Example 48, 3-amino-N-[(6-aminopyridin-2-yl)methyl]-6-[imidazo[1,2-a]pyridin-6-yl]-5-(1,3-oxazol-2-yl) pyrazine-2-carboxamide] was tested, and the IC50 (mA2a/CHO) was 256 nM, the IC50 [1, 3] was 7160 nM and the IC50 (hA2a) was 3.1 nM. For the same compound, the IC50 (hA1) was 67 nM, the IC50 (hA2a/CHO) was 19 nM and the IC50 (hA2b/CHO) was 84 nM.
For `Cc1cnc2ccc(-c3nc(C(=O)NC[C@H]4CCOC4)c(N)nc3-c3ncco3)cn12` [Example 136, (R)-3-amino-6-(3-methylimidazo[1,2-a]pyridin-6-yl)-5-(oxazol-2-yl)-N-((tetrahydrofuran-3-yl)methyl)pyrazine-2-carboxamide], the IC50 (mA2a/CHO) was 27 nM, the IC50 [1, 2] was 10000 nM and the IC50 (hA2a) was 1.7 nM. It also gave an IC50 (hA1) of 182 nM, an IC50 (hA2a/CHO) of 1.8 nM and an IC50 (hA2b/CHO) of 512 nM.
`Cn1cc(-c2nc(C(=O)NC(CO)c3c(F)cccc3F)c(N)nc2-c2ncco2)ccc1=O` (centres unmarked) [Example 98, 3-amino-N-(1-(2,6-difluorophenyl)-2-hydroxyethyl)-6-(1-methyl-6-oxo-1,6-dihydropyridin-3-yl)-5-(oxazol-2-yl) pyrazine-2-carboxamide] gave an IC50 (mA2a/CHO) of 64 nM, an IC50 [1, 2] of 70 nM and an IC50 (hA2a) of 9.3 nM. The IC50 (hA1) was 10 nM, the IC50 (hA2a/CHO) was 21 nM and the IC50 (hA2b/CHO) was 126 nM.
`Cc1cnc2ccc(-c3nc(C(=O)NCc4ncccc4F)c(N)nc3-c3ncco3)cn12` [Example 101, 3-amino-N-((3-fluoropyridin-2-yl)methyl)-6-(3-methylimidazo[1,2-a]pyridin-6-yl)-5-(oxazol-2-yl)pyrazine-2-carboxamide] was tested, and the IC50 [1, 3] was 45 nM and the IC50 (hA1) was 5.6 nM.
`Cc1cnc2ccc(-c3nc(C(=O)NC[C@H]4CCCO4)c(N)nc3-c3ncco3)cn12` [Example 126, (R)-3-amino-6-(3-methylimidazo[1,2-a]pyridin-6-yl)-5-(oxazol-2-yl)-N-((tetrahydrofuran-2-yl)methyl)pyrazine-2-carboxamide] was tested, and the IC50 (mA2a/CHO) was 7 nM, the IC50 [1, 2] was 1230 nM and the IC50 (hA2a) was 1.4 nM. It also gave an IC50 (hA1) of 78 nM, an IC50 (hA2a/CHO) of 1.6 nM and an IC50 (hA2b/CHO) of 77 nM.
`COC[C@H](C)NC(=O)c1nc(-c2ccc3ncc(C)n3c2)c(-c2ncco2)nc1N` [Example 160, (S)-3-amino-N-(1-methoxypropan-2-yl)-6-(3-methylimidazo[1,2-a]pyridin-6-yl)-5-(oxazol-2-yl)pyrazine-2-carboxamide] showed an IC50 (mA2a/CHO) of 0.89 nM, an IC50 [1, 3] of 4860 nM and an IC50 (hA2a) of 3.15 nM. The IC50 (hA1) was 333 nM, the IC50 (hA2a/CHO) was 0.26 nM and the IC50 (hA2b/CHO) was 163 nM.
Work on `Cc1cnc2ccc(-c3nc(C(=O)NC[C@@H]4CCOC4)c(N)nc3-c3ncco3)cn12` [Example 137, (S)-3-amino-6-(3-methylimidazo[1,2-a]pyridin-6-yl)-5-(oxazol-2-yl)-N-((tetrahydrofuran-3-yl)methyl)pyrazine-2-carboxamide] yielded an IC50 (mA2a/CHO) of 34 nM, an IC50 [1, 2] of 10000 nM and an IC50 (hA2a) of 3.9 nM. It also gave an IC50 (hA1) of 195 nM, an IC50 (hA2a/CHO) of 1.7 nM and an IC50 (hA2b/CHO) of 464 nM.
In the case of `Cn1cc(-c2nc(C(=O)NCc3c(F)cccc3F)c(N)nc2-c2ccc(F)cc2)ccc1=O` [Example 29, 3-amino-N-[(2,6-difluorophenyl)methyl]-5-(4-fluorophenyl)-6-(1-methyl-6-oxo-1,6-dihydropyridin-3-yl)pyrazine-2-carboxamide], the IC50 (mA2a/CHO) is reported as 60 nM, the IC50 [1, 3] is reported as 66 nM and the IC50 (hA2a) is reported as 2.3 nM. The IC50 (hA2a/CHO) was 6.8 nM, the IC50 (hA3/CHO) was no less than 10 µM and the IC50 (hA2b/CHO) was 103 nM.
Work on `Nc1nc(-c2ncco2)c(-c2ccc3[nH]cnc3c2)nc1C(=O)NCc1ncccc1F` [Example 47, 3-amino-6-(1H-1,3-benzodiazol-5-yl)-N-[(3-fluoropyridin-2-yl)methyl]-5-(1,3-oxazol-2-yl)pyrazine-2-carboxamide] yielded an IC50 [1, 2] of 10000 nM and an IC50 (hA1) of 696 nM.
`Cc1scnc1CNC(=O)c1nc(-c2ccc(=O)n(C)c2)c(-c2ncco2)nc1N` [Example 22, 3-amino-6-(1-methyl-6-oxo-1,6-dihydropyridin-3-yl)-N-((5-methylthiazol-4-yl)methyl)-5-(oxazol-2-yl)pyrazine-2-carboxamide] gave an IC50 (mA2a/CHO) of 132 nM, an IC50 [1, 3] of 3380 nM and an IC50 (hA2a) of 3.5 nM. The IC50 (hA2a/CHO) was 60 nM, the IC50 (hA3/CHO) was no less than 10 µM and the IC50 (hA2b/CHO) was 2550 nM.
